Results published in paper PMC10895697 (JAC-Antimicrobial Resistance, 2024).
≈ marks a conversion by molar mass, not a printed value. Like-named read-outs stand apart in the source and are kept apart here.

How the values were obtained:
S. aureus 1815 (MRSA) = assay: MIC/MBC by broth microdilution reference method; type: cell-based, Staphylococcus aureus
S. aureus 1816 (MSSA) = assay: MIC/MBC by broth microdilution reference method; type: cell-based, Staphylococcus aureus
S. aureus 1818 (MSSA) = assay: MIC/MBC by broth microdilution reference method; type: cell-based, Staphylococcus aureus
S. aureus 1334 (MSSA) = assay: MIC/MBC by broth microdilution reference method; type: cell-based, Staphylococcus aureus
S. aureus 1814 (MRSA) = assay: MIC/MBC by broth microdilution reference method; type: cell-based, Staphylococcus aureus
[1] = tested on: S. aureus ATCC 29213 (MSSA reference strain); assay: MIC/MBC by broth microdilution reference method; type: cell-based, Staphylococcus aureus
S. aureus 1333 (MSSA) = assay: MIC/MBC by broth microdilution reference method; type: cell-based, Staphylococcus aureus
S. aureus 1817 (MSSA) = assay: MIC/MBC by broth microdilution reference method; type: cell-based, Staphylococcus aureus
all S. aureus isolates = assay: MIC/MBC by broth microdilution, summary over all isolates; type: cell-based, Staphylococcus aureus; conditions: for MIC: Staphylococcus aureus, read-out: MICs for all S. aureus isolates
S. aureus = tested on: S. aureus; parameters: method as in ref 19 (Abad et al.); conditions: concentrations 10x or 100x respective MICs; ref 19 (Abad et al.); cited from earlier work
[2] = tested on: intra-macrophagic S. aureus; assay: Macrophage infection model (THP-1), intracellular activity; type: cell-based, Staphylococcus aureus; conditions: THP-1, MRSA 1814, MRSA 1815, MSSA 1333 and MSSA 1334, 2 x MIC, 24 h after treatment, vs untreated cells
Description: The macrophage infection model was performed using the THP-1 human monocytic cell line (ATCC, Rockville, USA). In brief, cells were cultured in the Roswell Park Memorial Institute (RPMI) medium supplemented with 10% FBS in T75 flasks at 37°C and 5% CO2, and were maintained through weekly transfers within passages 2 to 20. For the assays, THP-1 cells were seeded in 12-well plates and differentiated into macrophages with phorbol myristate acetate (PMA) for 72 h until they reached approximately 80% confluence. Bacterial suspensions, grown overnight in BHI, were prepared and adjusted to an moi of 10, and then introduced to the macrophages. After a 2 h coincubation to facilitate bacterial adherence, the cells were washed and treated with 100 mg/L gentamicin for 1 h. […] Finally, intracellular bacterial cells were enumerated from cellular lysates (following osmotic shock) by plating them onto BHI agar. Infected but untreated cells were used as a control in all experiments. The number of cfu in treated cells was standardized as a percentage of the controls.
Figure 2. […] Data represent the mean ± SD of three independent experiments. Intracellular cfu counts were normalized relative to untreated cells (depicted by black histograms), and differences between treated and untreated cells, as well as between the two compounds, were assessed using the Mann–Whitney U-test. ***P < 0.001; ****P < 0.0001.

osteoblasts (MG-63) = tested on: osteoblasts (MG-63)
Description: (§1) In both models, the viability was assessed using the MTT assay to determine the potential cytotoxicity of antimicrobials on untreated and infected/treated cells. Briefly, an MTT solution (0.5 mg/mL) was added to the cell medium without FBS. After washing with PBS and a 30 min incubation at 37°C, the formazan crystals formed were dissolved in DMSO. Absorbance values at 540 nm were measured using a BioTek Synergy 2 microplate reader.

macrophages (THP-1) = tested on: macrophages (THP-1)
Description: as §1

[3] = tested on: intra-osteoblastic S. aureus; assay: Osteoblast infection model (MG-63), intracellular activity; type: cell-based, Staphylococcus aureus; conditions: MG-63, all four isolates (2 MSSA and 2 MRSA), 2 x MIC, 3 h after treatment, vs untreated cells
Description: The osteoblast infection model was conducted using MG-63 (CRL-1427) osteoblastic cells, following previously published procedures.[19] Briefly, MG-63 cells were cultured at 37°C in a 5% CO2 environment and passaged weekly for up to 20 weeks. The culture medium used was DMEM supplemented with 10% FBS, 25 mM HEPES, 2 mM L-glutamine, with or without antibiotics (100 U/mL penicillin plus 100 mg/L streptomycin). For the assays, MG-63 cells were seeded in 24-well plates until reaching 70%–80% confluence. Bacterial cell suspensions grown overnight in BHI broth were prepared and adjusted to an moi of 50, and then introduced to the osteoblasts. After a 2 h coincubation to facilitate bacterial adhesion, MG-63 cells were rinsed and treated with 100 mg/L gentamicin for 1 h to eliminate extracellular bacterial cells. […] Finally, intracellular bacterial cells were quantified in cellular lysates (following osmotic shock) by plating them onto BHI agar.
Figure 1. […] Data represent the mean ± SD from three independent experiments. Intracellular cfu counts were normalized relative to untreated cells (depicted by black histograms), and differences between treated and untreated cells, as well as between the two compounds, were assessed using the Mann–Whitney U-test. *P < 0.05; **P < 0.01; ***P < 0.001; ****P < 0.0001.

[4] = strain 1815, MRSA gentamicin and erythromycin resistant, broth microdilution
[5] = strain 1816, MSSA multi-susceptible, broth microdilution
[6] = strain 1818, MSSA multi-susceptible, broth microdilution
[7] = strain 1334, MSSA multi-susceptible, broth microdilution
[8] = strain 1814, MRSA ciprofloxacin resistant, broth microdilution
[9] = reference strain ATCC 29213, MSSA, broth microdilution
[10] = strain 1333, MSSA multi-susceptible, broth microdilution
[11] = strain 1817, MSSA erythromycin resistant, broth microdilution
[12] = summary over all S. aureus isolates of Table 1, broth microdilution

Compound: teicoplanin [TEC]
- MBC (S. aureus 1815 (MRSA); [4]): 1 µg/mL
- MIC (S. aureus 1815 (MRSA); [4]): 0.5 µg/mL
- MBC (S. aureus 1816 (MSSA); [5]): 0.5 µg/mL
- MIC (S. aureus 1816 (MSSA); [5]): 0.25 µg/mL
- MBC (S. aureus 1818 (MSSA); [6]): 2 µg/mL
- MIC (S. aureus 1818 (MSSA); [6]): 1 µg/mL
- MBC (S. aureus 1334 (MSSA); [7]): 0.5 µg/mL
- MIC (S. aureus 1334 (MSSA); [7]): 0.25 µg/mL
- MBC (S. aureus 1814 (MRSA); [8]): 1 µg/mL
- MIC (S. aureus 1814 (MRSA); [8]): 0.5 µg/mL
- MBC [1, 9]: 1 µg/mL
- MIC [1, 9]: 0.5 µg/mL
- MBC (S. aureus 1333 (MSSA); [10]): 1 µg/mL
- MIC (S. aureus 1333 (MSSA); [10]): 0.5 µg/mL
- MBC (S. aureus 1817 (MSSA); [11]): 1 µg/mL
- MIC (S. aureus 1817 (MSSA); [11]): 0.5 µg/mL
- MICs for all S. aureus isolates (all S. aureus isolates; [12]): 0.25 to 1 mg/L

Compound: CO[C@H]1/C=C/O[C@@]2(C)Oc3c(C)c(O)c4c(O)c(c(/C=N/N5CCN(C6CCCC6)CC5)c(O)c4c3C2=O)NC(=O)/C(C)=C\C=C\[C@H](C)[C@H](O)[C@@H](C)[C@@H](O)[C@@H](C)[C@H](OC(C)=O)[C@@H]1C [rifapentine]
- reduction in intracellular bacteria (S. aureus): 45.3%

Compound: CO[C@H]1/C=C/O[C@@]2(C)Oc3c(C)c(O)c4c(O)c(c(/C=N/N5CCN(C)CC5)c(O)c4c3C2=O)NC(=O)/C(C)=C\C=C\[C@H](C)[C@H](O)[C@@H](C)[C@@H](O)[C@@H](C)[C@H](OC(C)=O)[C@@H]1C [rifampicin]
- reduction in intracellular bacteria (S. aureus): approximately 54.0%

Compound: C[C@H]1COc2c(N3CCN(C)CC3)c(F)cc3c(=O)c(C(=O)O)cn1c23 [LVX, levofloxacin]
- MBC (S. aureus 1815 (MRSA); Staphylococcus aureus, strain 1815, MRSA gentamicin and erythromycin resistant, broth microdilution, read-out: MBC): 0.5 µg/mL (≈ 1.38 µM)
- MIC (S. aureus 1815 (MRSA); Staphylococcus aureus, strain 1815, MRSA gentamicin and erythromycin resistant, broth microdilution, read-out: MIC): 0.5 µg/mL (≈ 1.38 µM)
- MBC (S. aureus 1816 (MSSA); Staphylococcus aureus, strain 1816, MSSA multi-susceptible, broth microdilution, read-out: MBC): 0.25 µg/mL (≈ 0.692 µM)
- MIC (S. aureus 1816 (MSSA); Staphylococcus aureus, strain 1816, MSSA multi-susceptible, broth microdilution, read-out: MIC): 0.25 µg/mL (≈ 0.692 µM)
- MBC (S. aureus 1818 (MSSA); Staphylococcus aureus, strain 1818, MSSA multi-susceptible, broth microdilution, read-out: MBC): 0.25 µg/mL (≈ 0.692 µM)
- MIC (S. aureus 1818 (MSSA); Staphylococcus aureus, strain 1818, MSSA multi-susceptible, broth microdilution, read-out: MIC): 0.25 µg/mL (≈ 0.692 µM)
- MBC (S. aureus 1334 (MSSA); Staphylococcus aureus, strain 1334, MSSA multi-susceptible, broth microdilution, read-out: MBC): 0.5 µg/mL (≈ 1.38 µM)
- MIC (S. aureus 1334 (MSSA); Staphylococcus aureus, strain 1334, MSSA multi-susceptible, broth microdilution, read-out: MIC): 0.5 µg/mL (≈ 1.38 µM)
- effect on intracellular inoculum in macrophages [2]: significantly reducing the intracellular inoculum
- MBC (S. aureus 1814 (MRSA); Staphylococcus aureus, strain 1814, MRSA ciprofloxacin resistant, broth microdilution, read-out: MBC): 4 µg/mL (≈ 11.1 µM)
- MIC (S. aureus 1814 (MRSA); Staphylococcus aureus, strain 1814, MRSA ciprofloxacin resistant, broth microdilution, read-out: MIC): 4 µg/mL (≈ 11.1 µM)
- MBC ([1]; Staphylococcus aureus, reference strain ATCC 29213, MSSA, broth microdilution, read-out: MBC): 0.5 µg/mL (≈ 1.38 µM)
- MIC ([1]; Staphylococcus aureus, reference strain ATCC 29213, MSSA, broth microdilution, read-out: MIC): 0.5 µg/mL (≈ 1.38 µM)
- direct cytotoxicity on uninfected osteoblasts (MTT) (osteoblasts (MG-63)): did not observe any significant direct cytotoxicity
- direct cytotoxicity on uninfected macrophages (MTT) (macrophages (THP-1)): no significant direct cytotoxicity
- MBC (S. aureus 1333 (MSSA); Staphylococcus aureus, strain 1333, MSSA multi-susceptible, broth microdilution, read-out: MBC): 0.5 µg/mL (≈ 1.38 µM)
- MIC (S. aureus 1333 (MSSA); Staphylococcus aureus, strain 1333, MSSA multi-susceptible, broth microdilution, read-out: MIC): 0.5 µg/mL (≈ 1.38 µM)
- MBC (S. aureus 1817 (MSSA); Staphylococcus aureus, strain 1817, MSSA erythromycin resistant, broth microdilution, read-out: MBC): 0.25 µg/mL (≈ 0.692 µM)
- MIC (S. aureus 1817 (MSSA); Staphylococcus aureus, strain 1817, MSSA erythromycin resistant, broth microdilution, read-out: MIC): 0.25 µg/mL (≈ 0.692 µM)
- effect on intracellular bacterial load in osteoblasts [3]: significantly reduced the bacterial load
- MIC (all S. aureus isolates; [12]): 0.25 to 4 µg/mL (≈ 0.692 to 11.1 µM)

Compound: CCCCCCCCCC(=O)N[C@@H](Cc1c[nH]c2ccccc12)C(=O)N[C@H](CC(N)=O)C(=O)N[C@@H](CC(=O)O)C(=O)N[C@@H]1C(=O)NCC(=O)N[C@@H](CCCN)C(=O)N[C@@H](CC(=O)O)C(=O)N[C@H](C)C(=O)N[C@@H](CC(=O)O)C(=O)NCC(=O)N[C@H](CO)C(=O)N[C@@H]([C@H](C)CC(=O)O)C(=O)N[C@@H](CC(=O)c2ccccc2N)C(=O)O[C@@H]1C [DAP, daptomycin]
- MBC (S. aureus 1815 (MRSA); Staphylococcus aureus, MRSA): 0.5 µg/mL (≈ 0.309 µM)
- MIC (S. aureus 1815 (MRSA); Staphylococcus aureus, MRSA): 0.25 µg/mL (≈ 0.154 µM)
- MBC (S. aureus 1816 (MSSA); Staphylococcus aureus, MSSA): 0.5 µg/mL (≈ 0.309 µM)
- MIC (S. aureus 1816 (MSSA); Staphylococcus aureus, MSSA): 0.25 µg/mL (≈ 0.154 µM)
- MBC (S. aureus 1818 (MSSA); Staphylococcus aureus, MSSA): 0.5 µg/mL (≈ 0.309 µM)
- MIC (S. aureus 1818 (MSSA); Staphylococcus aureus, MSSA): 0.25 µg/mL (≈ 0.154 µM)
- MBC (S. aureus 1334 (MSSA); Staphylococcus aureus, MSSA): 0.5 µg/mL (≈ 0.309 µM)
- MIC (S. aureus 1334 (MSSA); Staphylococcus aureus, MSSA): 0.25 µg/mL (≈ 0.154 µM)
- MBC (S. aureus 1814 (MRSA); Staphylococcus aureus, MRSA): 0.5 µg/mL (≈ 0.309 µM)
- MIC (S. aureus 1814 (MRSA); Staphylococcus aureus, MRSA): 0.25 µg/mL (≈ 0.154 µM)
- MBC ([1]; Staphylococcus aureus): 0.5 µg/mL (≈ 0.309 µM)
- MIC ([1]; Staphylococcus aureus): 0.25 µg/mL (≈ 0.154 µM)
- MBC (S. aureus 1333 (MSSA); Staphylococcus aureus, MSSA): 0.5 µg/mL (≈ 0.309 µM)
- MIC (S. aureus 1333 (MSSA); Staphylococcus aureus, MSSA): 0.25 µg/mL (≈ 0.154 µM)
- MBC (S. aureus 1817 (MSSA); Staphylococcus aureus, MSSA): 0.5 µg/mL (≈ 0.309 µM)
- MIC (S. aureus 1817 (MSSA); Staphylococcus aureus, MSSA): 0.25 µg/mL (≈ 0.154 µM)
- MIC (all S. aureus isolates): 0.25 µg/mL (≈ 0.154 µM)

Compound: CO[C@H]1/C=C/O[C@@]2(C)Oc3c(C)c(O)c4c(c3C2=O)C2=NC3(CCN(CC(C)C)CC3)NC2=C(NC(=O)/C(C)=C\C=C\[C@H](C)[C@H](O)[C@@H](C)[C@@H](O)[C@@H](C)[C@H](OC(C)=O)[C@@H]1C)C4=O [rifabutin]
- reduction in intracellular bacteria (S. aureus): around 62.1%
